Read-outs that look alike come from different tables or passages of the source.

The text below walks through data of PMC8957246, “Synthesis and diverse biological activity profile of triethylammonium isatin-3-hydrazones” (ADMET & DMPK, 2022).

What all share (assay type): cell-based
The subject of assay [1] is platelets (ADP-induced aggregation). Description: Platelet aggregation (Born method), ADP-induced. As to conditions: Homo sapiens, ADP 20 μg/mL, final concentration 2×10^–3 mol/L, median (25-75 percentiles), read-out: Platelets aggregation, % of control, ADP. The method, then:
(§1) The in vitro experiments were performed using the blood of healthy male donors aged 18-24 years (total 54 donors). The study was approved by the Ethics Committee of Federal State Budgetary Educational Institution of Higher Education at the Bashkir State Medical University of the Ministry of Health of Russian Federation (No.2 dated 17.10.2012). Informed consent was obtained from all participants before blood sampling. The blood was collected from the cubital vein using the system of vacuum blood collection BD Vacutainer® (Becton, Dickinson and Company, USA). A 3.8 % sodium citrate solution in a 9:1 ratio was used as a venous blood stabiliser. The study of the effect on platelet aggregation was performed using the Born method using the aggregometer «AT-02» (SPC Medtech, Russia). The assessment of antiplatelet activity of the studied compounds and reference preparations was started with the final concentration of 2×10^–3 mol/L. Adenosine diphosphate (ADP; 20 μg/mL) and collagen (5 mg/mL) manufactured by Tehnologia-Standart Company, Russia, were used as inducers of aggregation. The study on the anticoagulant activity was performed by standard recognised clotting tests using the optical two-channel automatic analyser of blood coagulation Solar CGL 2110 (CJSC SOLAR, Belarus). The following parameters were studied: activated partial thromboplastin time (APTT), prothrombin time (PT) and fibrinogen concentrations according to the Clauss method. The determination of anticoagulant activity of the studied compounds and reference preparation was performed in a concentration of 5×10^–4 g/mL using the reagents manufactured by Tehnologia-Standart Company (Barnaul, Russia). The results of the study were processed using the statistical package Statistica 10.0 (StatSoft Inc, USA). The Shapiro–Wilk’s test was used to check the normality of actual data distribution. The form of distribution of the data obtained differed from the normal one; therefore, non-parametric methods were used for further analysis. The data were presented as medians and 25 and 75 percentiles. Analysis of variance was conducted using Kruskal–Wallis test. A p value of 0.05 was considered statistically significant.

Assay [2] relates to platelets (collagen-induced aggregation). Description: Platelet aggregation (Born method), collagen-induced. The following applies: Homo sapiens, collagen 5 mg/mL, final concentration 2×10^–3 mol/L, median (25-75 percentiles), read-out: Platelets aggregation, % of control, Collagen. The method, then: as §1
Assay [3] has as its system Pectobacterium atrosepticum 1043. Description: Bactericidal activity, agar diffusion, P. atrosepticum. The following applies: Pectobacterium atrosepticum, 1043, 2 mM/L. The text has this:
(§2) Plant pathogenic bacterial strains Micrococcus luteus B-109, Pectobacterium atrosepticum 1043, Pectobacterium carotovorum subsp. carotovorum MI, Pseudomonas fluorescens EL-2.1, and Xanthomonas campestris B-610 and fungal strain Fusarium oxysporum IBPPM 543 were obtained from the specialized scientific culture collection of IBPPM RAS (WFCC no. 975, WDCM no. 1021) (CM IBPPM). Pathogenic fungus Phytophthora cactorum VKM F-985 provided by the All-Russian Collection of Microorganisms (VKM) and deposited at A.E. Favorsky Irkutsk Institute of Chemistry, SB RAS, was also used as test organism. Bacteria M. luteus, P. carotovorum subsp. carotovorum, P. atrosepticum, and Ps. fluorescens were grown in meat-peptone medium (BP), and X. campestris was grown in the medium with glucose, yeast extract, and calcium carbonate (GYCa). Solid media contained Bacto agar (18 g/L); pH was adjusted to 7.2-7.4. All bacterial cultures were grown at 28°C. The mycelial cultures of F. oxysporum and P. cactorum were grown on a glucose-peptone-yeast (GPY) nutrient medium at 27 °C. For inoculum preparation, both fungal strains were initially grown on the agar GPY in Petri dishes and then transferred into the seed medium by punching out 5 mm of the agar plate culture with a self-designed cutter.
Antibacterial and antifungal activities of the compounds were explored using the agar diffusion method and the technique of a phytopathogen radial growth inhibition. Method of diffusion in agar (measuring the diameter of growth inhibition zones) was used for determining the bactericidal activity. The 6-mm wells were made in ager medium (GYCa for Xanthomonas campestris or BP for other bacteria). Bacterial suspensions were distributed over the agar surface, and the tested compound's solution (150 μl) was added to each well. The width of growth inhibition zones around the wells was determined after incubation for 36-40 h.
(§3) The solutions of tested compounds were prepared with a concentration of 2 mmol/l (stock solution). For comparison, test compounds were also commonly applied disinfecting agents and antibiotics.

The subject of assay [4] is Fusarium oxysporum IBPPM 543. Kind of assay: Fungicidal activity, radial growth inhibition, F. oxysporum. As to conditions: for EC50: Fusarium oxysporum, IBPPM543, 168 h, day 7, EC50 = 50C/I, read-out: EC50, μg/mL at day 7.
From the text: as §2
For the fungicidal activity analysis, radial growth (colony diameters) of the fungi on a solid medium in the absence and in the presence of the compounds 3a,c-g solutions at various concentrations were compared. The method consisted of the following: sterile, melted and then cooled to about 60°C GPY agar medium (20.0 ml) was mixed with the precisely measured volumes of the solutions under question, and poured into a sterile Petri dish (90 mm i.d.). After solidification of GPY agar, the media were inoculated by the fungus using 10-day-old cultures of F. oxysporum or P. cactorum. The inoculation was done by transferring a 5-mm (i.d.) GPY-agar block covered with mycelium to the center of the Petri dish followed by incubation in a thermostat at 27°C. The fungicidal effect was scored by the size of mycelium colony on a Petri dish compared to the control without fungicidal admixtures to GPY agar. Each treatment was performed in at least four replicates in two independent experiments. The observation period ended when the control Petri dish was filled with mycelium (usually after 12 days). The inhibition of the phytopathogen colony growth by the compounds 3a,c-g or fludioxonil solutions was calculated as a percentage by which the mycelium radial propagation was decreased compared to the unaffected control, the latter was taken as 100 % of growth (or zero percent of inhibition). The EC50 value was calculated as the compound concentration at which the radial growth of the fungus colony was decreased by 50 % relative to the non-fungicidal control, according to the formula EC50 = 50C/I based on the approach developed e.g., in [34, 35].
as §3

[5] abbreviates: 150 μl per well, 36-40 h, read-out: width of the inhibition zone.
[6] abbreviates: read-out: Inhibition zone width (mm), not less.
[7] abbreviates: C 6.30 μg/mL, age of the fungus 3 days.
Where [8] appears, read: C 6.30 μg/mL, age of the fungus 5 days.
The mark [9] stands for this setting: C 6.30 μg/mL, age of the fungus 7 days.
Where [10] appears, read: C 6.30 μg/mL, age of the fungus 9 days.
The mark [11] stands for this setting: C 12.60 μg/mL, age of the fungus 3 days.
The mark [12] stands for this setting: C 12.60 μg/mL, age of the fungus 5 days.
Where [13] appears, read: C 12.60 μg/mL, age of the fungus 7 days.
[14] abbreviates: C 12.60 μg/mL, age of the fungus 9 days.
[15] abbreviates: C 25.20 μg/mL, age of the fungus 3 days.
The mark [16] stands for this setting: C 25.20 μg/mL, age of the fungus 5 days.
[17] abbreviates: C 25.20 μg/mL, age of the fungus 7 days.
Where [18] appears, read: C 25.20 μg/mL, age of the fungus 9 days.
Setting [19] is: C 37.80 μg/mL, age of the fungus 3 days.
[20] abbreviates: C 37.80 μg/mL, age of the fungus 5 days.
Where [21] appears, read: C 37.80 μg/mL, age of the fungus 7 days.
[22] abbreviates: C 37.80 μg/mL, age of the fungus 9 days.

Turning to `CC[N+](CC)(CC)CC(=O)N/N=C1\C(=O)N(Cc2cc(C(C)(C)C)c(O)c(C(C)(C)C)c2)c2ccccc21` [Compound 3a, 2-(2-(1-(3,5-Di-tert-butyl-4-hydroxybenzyl)-2-oxoindolin-3-ylidene)hydrazinyl)-N,N,N-triethyl-2-oxoethanammonium bromide], the inhibition at 2000 µM in assay [1] came out at 10.5%; in assay [2], 9.4%. Further, the zone of inhibition at 2000 µM in assay [3] (setting [5]) was 8 mm; in assay [3] (setting [6]) it was no less than 8 mm. The “Inhibition value, I (%)” value is on record as 11% in assay [4] (C 6.02 μg/mL, age of the fungus 3 days); 4% in assay [4] (C 6.02 μg/mL, age of the fungus 5 days); 9% in assay [4] (C 6.02 μg/mL, age of the fungus 7 days); 0% in assay [4] (C 6.02 μg/mL, age of the fungus 9 days); 14% in assay [4] (C 12.04 μg/mL, age of the fungus 3 days); 12% in assay [4] (C 12.04 μg/mL, age of the fungus 5 days). The “Inhibition value, I (%)” value in assay [4] (C 12.04 μg/mL, age of the fungus 7 days) turned out to be 18%; in assay [4] (C 12.04 μg/mL, age of the fungus 9 days), 3%; in assay [4] (C 24.08 μg/mL, age of the fungus 3 days) it was 24%; in assay [4] (C 24.08 μg/mL, age of the fungus 5 days), 16%; in assay [4] (C 24.08 μg/mL, age of the fungus 7 days), 27%; in assay [4] (C 24.08 μg/mL, age of the fungus 9 days) it was 4%. The “Inhibition value, I (%)” value in assay [4] (C 36.12 μg/mL, age of the fungus 3 days) was determined as 28%; in assay [4] (C 36.12 μg/mL, age of the fungus 5 days), 24%; in assay [4] (C 36.12 μg/mL, age of the fungus 7 days), 30%; in assay [4] (C 36.12 μg/mL, age of the fungus 9 days), 12%. For the same compound, the EC50 in assay [4] was determined as 33.4 µg/mL.
As for `CCc1cccc2c1N(Cc1cc(C(C)(C)C)c(O)c(C(C)(C)C)c1)C(=O)/C2=N\NC(=O)C[N+](CC)(CC)CC` [Compound 3c, 2-(2-(1-(3,5-Di-tert-butyl-4-hydroxybenzyl)-7-ethyl-2-oxoindolin-3-ylidene)hydrazinyl)-N,N,N-triethyl-2-oxoethanammonium bromide], the inhibition at 2000 µM in assay [1] turned out to be 13.7%; in assay [2], 12.5%. The values for the zone of inhibition at 2000 µM in assay [3] (setting [5]) and in assay [3] (setting [6]) were 9 mm and no less than 9 mm, respectively. In addition, the “Inhibition value, I (%)” value in assay [4] (setting [7]) is 2%; in assay [4] (setting [8]) it was 11%; in assay [4] (setting [9]), 30%; in assay [4] (setting [10]), 17%; in assay [4] (setting [11]), 24%; in assay [4] (setting [12]), 26%. Also, the “Inhibition value, I (%)” value stood at 33% in assay [4] (setting [13]); 23% in assay [4] (setting [14]); 31% in assay [4] (setting [15]); 33% in assay [4] (setting [16]); 47% in assay [4] (setting [17]); 27% in assay [4] (setting [18]). The “Inhibition value, I (%)” value was 44% in assay [4] (setting [19]), 42% in assay [4] (setting [20]), 59% in assay [4] (setting [21]) and 38% in assay [4] (setting [22]). In assay [4], the EC50 came to 10.5 µg/mL.
Regarding `CC[N+](CC)(CC)CC(=O)N/N=C1\C(=O)N(Cc2cc(C(C)(C)C)c(O)c(C(C)(C)C)c2)c2c1ccc(C)c2C` [Compound 3d, 2-(2-(1-(3,5-Di-tert-butyl-4-hydroxybenzyl)-6,7-dimethyl-2-oxoindolin-3-ylidene)hydrazinyl)-N,N,N-triethyl-2-oxoethanammonium bromide], the inhibition at 2000 µM in assay [1] is 9%; in assay [2] it was 8.5%. In addition, the figures for the zone of inhibition at 2000 µM in assay [3] (setting [5]) and in assay [3] (setting [6]) were 8 mm and no less than 8 mm, respectively. In addition, the “Inhibition value, I (%)” value in assay [4] (setting [7]) was 0%; in assay [4] (setting [8]), 5%; in assay [4] (setting [9]) it was 5%; in assay [4] (setting [10]), 0%; in assay [4] (setting [11]), 8%; in assay [4] (setting [12]), 12%. Further, the “Inhibition value, I (%)” value in assay [4] (setting [13]) turned out to be 13%; in assay [4] (setting [14]) it was 2%; in assay [4] (setting [15]), 17%; in assay [4] (setting [16]), 15%; in assay [4] (setting [17]) it was 20%; in assay [4] (setting [18]), 8%. For the same compound, the “Inhibition value, I (%)” value in assay [4] (setting [19]) was determined as 22%; in assay [4] (setting [20]) it was 18%; in assay [4] (setting [21]), 24%; in assay [4] (setting [22]) it was 9%. Further, the EC50 in assay [4] was determined as 48.5 µg/mL.
